Laboratory results: ChEMBL document CHEMBL5696439 (Cancer Res, 2010)
The source made the active and inactive calls. No cut-off for these calls is given here.

Experiments:
[1] = tested on: MDA-MB-361; experiment: Induction of apoptosis in HER2 hyperactive human MDA-MB-361 cells assessed as massive cell death at 0.001 to 100 micromol/L incubated for 48 hrs by FACS analysis; format: functional, cell-based; conditions: dose 0.001-100 µmol/L
[2] = tested on: Fibroblast growth factor receptor 3 (Homo sapiens), P22607 [K650E]; experiment: Inhibition of recombinant human His-tagged FGFR3 FGFR3 K650E mutant (398-806 residues) expressed in baculovirus expression system at 2 uM using Tyr 04 as substrate measured after 1 hr by Z'-LYTE assay relative to control
[3] = tested on: HCT-116; experiment: Induction of apoptosis in human HCT-116 cells assessed as reduction in S phase at 1 micromol/L incubated for 24 hrs by FACS analysis; format: functional, cell-based; conditions: dose 1.0 µmol/L
[4] = biological target: Serine/threonine-protein kinase Nek7 (Homo sapiens) (UniProt Q8TDX7); experiment: Inhibition of recombinant human His-tagged NEK7 (8-313 residues) expressed in insect cells at 2 uM using Ser/Thr 22 as substrate measured after 1 hr by Z'-LYTE assay relative to control; conditions: Insect cell
[5] = biological target: ALK tyrosine kinase receptor (Homo sapiens) (UniProt Q9UM73); experiment: Inhibition of recombinant human GST-tagged ALK (1058 to 1620 residues) expressed in insect cells at 2 uM using Tyr 01 as substrate measured after 1 hr by Z'-LYTE assay relative to control; conditions: Insect cell
[6] = tested on: MDA-MB-361; experiment: Antitumor activity against human MDA-MB-361 cells xenografted in female nude mouse model assessed as induction in PARP cleavage at 50 mg/kg, po qd administered as 5 days on/2 days off regimen for 4 cycles by immunoblot analysis; format: functional, organism-based; conditions: time 28.0 day
[7] = biological target: MAP kinase-activated protein kinase 3 (Homo sapiens) (UniProt Q16644); experiment: Inhibition of recombinant human full length His-tagged MAPKAPK3 expressed in baculovirus expression system at 2 uM using Ser/Thr 04 as substrate measured after 1 hr by Z'-LYTE assay relative to control
[8] = tested on: A498; experiment: Antitumor activity against human A498 cells xenografted in female nude mouse model assessed as tumor regression at 50 mg/kg, po qd administered as 5 days on/2 days off regimen for 4 cycles; format: functional, organism-based; conditions: time 28.0 day
[9] = biological target: Serine/threonine-protein kinase PLK2 (Homo sapiens) (UniProt Q9NYY3); experiment: Inhibition of recombinant human full length GST-tagged PLK2 expressed in baculovirus expression system at 2 uM using Ser/Thr 16 as substrate measured after 1 hr by Z'-LYTE assay relative to control
[10] = biological target: Aurora kinase A (Homo sapiens) (UniProt O14965); experiment: Inhibition of recombinant human full-length His-tagged AURKA expressed in insect cells at 2 uM using Ser/Thr 01 as substrate measured after 1 hr by Z'-LYTE assay relative to control; conditions: Insect cell
[11] = biological target: Testis-specific serine/threonine-protein kinase 1 (Homo sapiens) (UniProt Q9BXA7); experiment: Inhibition of recombinant human full length His-tagged STK22D expressed in insect cells at 2 uM using Ser/Thr 04 as substrate measured after 1 hr by Z'-LYTE assay relative to control; conditions: Insect cell
[12] = biological target: mTORC2 (Homo sapiens) (UniProt P42345+Q6R327+Q9BVC4+Q9BPZ7); conditions: U-87 MG, dose 0.025-2 µmol/L, time 6.0 hrs
[13] = biological target: Serine/threonine-protein kinase pim-1 (Homo sapiens) (UniProt P11309); experiment: Inhibition of recombinant human full length His-tagged PIM1 expressed in insect cells at 2 uM using Ser/Thr 07 as substrate measured after 1 hr by Z'-LYTE assay relative to control; conditions: Insect cell
[14] = tested on: NCI-H1975; experiment: Induction of apoptosis in human NCI-H1975 cells assessed as increase in PARP cleavage at 0.3 to 3 micromol/L incubated for 48 hrs by Western blot analysis; format: functional, cell-based; conditions: dose 0.3-3 µmol/L
[15] = biological target: Calcium/calmodulin-dependent protein kinase type II subunit beta (Homo sapiens) (UniProt Q13554); experiment: Inhibition of recombinant human full-length His-tagged CAMK2B expressed in insect cells at 2 uM using Ser/Thr 17 as substrate measured after 1 hr by Z'-LYTE assay relative to control; conditions: Insect cell
[16] = tested on: HeLa; experiment: Antiproliferative activity against human HeLa cells assessed as cell growth inhibition incubated for 24 hrs by MTS assay; format: functional, cell-based
[17] = tested on: MDA-MB-361; experiment: Induction of apoptosis in human MDA-MB-361 cells assessed as induction in cell death at 30 nmol/L incubated for 48 hrs by FACS analysis relative to control; format: functional
[18] = biological target: Tyrosine-protein kinase ITK/TSK (Homo sapiens) (UniProt Q08881); experiment: Inhibition of recombinant human full-length GST-tagged ITK expressed in insect cells at 2 uM using Tyr 01 as substrate measured after 1 hr by Z'-LYTE assay relative to control; conditions: Insect cell
[19] = biological target: Tyrosine-protein kinase Srms (Homo sapiens) (UniProt Q9H3Y6); experiment: Inhibition of recombinant human full length GST-tagged SRMS expressed in insect cells at 2 uM using Tyr 01 as substrate measured after 1 hr by Z'-LYTE assay relative to control; conditions: Insect cell
[20] = tested on: HT-29; experiment: Antitumor activity against human HT-29 cells xenografted in female nude mouse model assessed as suppression in P-AKT at S473 level at 50 mg/kg, iv administered once a week and measured at least 8 hrs by immunoblot analysis; format: functional, organism-based
[21] = biological target: Ephrin type-B receptor 3 (Homo sapiens) (UniProt P54753); experiment: Inhibition of recombinant human GST-tagged EPHB3 (623-907 residues) expressed in insect cells at 2 uM using Tyr 02 as substrate measured after 1 hr by Z'-LYTE assay relative to control; conditions: Insect cell
[22] = tested on: MDA-MB-361; experiment: Antiproliferative activity against human MDA-MB-361 cells assessed as cell growth inhibition incubated for 1 days by MTS assay; format: functional, cell-based; conditions: MDA-MB-361, 24 h
[23] = biological target: Dual specificity mitogen-activated protein kinase kinase 1 (Homo sapiens) (UniProt Q02750); experiment: Inhibition of recombinant human full length His-tagged MAP2K1 expressed in baculovirus expression system at 2 uM using Ser/Thr 03 as substrate measured after 1 hr by Z'-LYTE assay relative to control
[24] = tested on: A549; experiment: Antitumor activity against VHL null-human A549 cells xenografted in female nude mouse model assessed as suppression in tumor growth at 25 mg/kg, po qd administered as 5 days on/2 days off regimen for 4 cycles relative to control; format: functional; conditions: time 28 day
[25] = tested on: Tyrosine-protein kinase JAK2 (Homo sapiens), O60674 [V617F]; experiment: Inhibition of recombinant human GST-tagged JAK2 JH1 JH2 domains V617F mutant (532-1132 residues) expressed in insect cells at 2 uM using Tyr 06 as substrate measured after 1 hr by Z'-LYTE assay relative to control; conditions: Insect cell
[26] = tested on: Proto-oncogene tyrosine-protein kinase receptor Ret (Homo sapiens), P07949 [V804L]; experiment: Inhibition of recombinant human GST-tagged RET V804L mutant (658-1114 residues) expressed in baculovirus expression system at 2 uM using Tyr 02 as substrate measured after 1 hr by Z'-LYTE assay relative to control
Chain of Proto-oncogene tyrosine-protein kinase receptor Ret (Homo sapiens), P07949 [V804L] (P07949 whole entry V804L, the tested form may be a part): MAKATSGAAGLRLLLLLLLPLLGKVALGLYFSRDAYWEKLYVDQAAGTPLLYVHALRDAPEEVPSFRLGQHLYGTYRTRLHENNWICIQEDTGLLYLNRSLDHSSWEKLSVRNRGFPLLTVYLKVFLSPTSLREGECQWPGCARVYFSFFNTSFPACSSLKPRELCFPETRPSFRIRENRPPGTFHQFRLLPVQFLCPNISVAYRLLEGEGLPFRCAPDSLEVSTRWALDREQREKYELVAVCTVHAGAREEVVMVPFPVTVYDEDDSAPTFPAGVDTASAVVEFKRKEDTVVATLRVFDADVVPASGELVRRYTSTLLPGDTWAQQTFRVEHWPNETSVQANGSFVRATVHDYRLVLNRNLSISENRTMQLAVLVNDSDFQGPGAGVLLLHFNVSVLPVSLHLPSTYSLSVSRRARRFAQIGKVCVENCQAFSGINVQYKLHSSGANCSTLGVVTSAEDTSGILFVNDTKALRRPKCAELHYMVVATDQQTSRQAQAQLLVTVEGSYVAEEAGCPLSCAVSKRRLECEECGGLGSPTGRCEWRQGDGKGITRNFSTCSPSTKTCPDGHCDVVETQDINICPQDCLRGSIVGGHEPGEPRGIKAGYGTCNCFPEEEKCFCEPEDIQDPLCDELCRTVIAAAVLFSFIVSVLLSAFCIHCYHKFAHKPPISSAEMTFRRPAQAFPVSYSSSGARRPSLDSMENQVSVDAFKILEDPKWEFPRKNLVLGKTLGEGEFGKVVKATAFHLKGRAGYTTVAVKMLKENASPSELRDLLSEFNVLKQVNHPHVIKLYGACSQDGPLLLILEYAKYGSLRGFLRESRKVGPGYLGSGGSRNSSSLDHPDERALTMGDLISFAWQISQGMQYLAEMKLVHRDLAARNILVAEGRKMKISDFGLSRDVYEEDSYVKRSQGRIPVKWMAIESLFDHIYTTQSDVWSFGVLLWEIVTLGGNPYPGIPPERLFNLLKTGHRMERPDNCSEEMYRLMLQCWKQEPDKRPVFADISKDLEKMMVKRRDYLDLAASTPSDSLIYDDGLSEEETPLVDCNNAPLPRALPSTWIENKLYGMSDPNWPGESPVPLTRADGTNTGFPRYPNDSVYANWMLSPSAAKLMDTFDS

Chain of Serine/threonine-protein kinase pim-1 (Homo sapiens) (P11309 whole entry, looked up): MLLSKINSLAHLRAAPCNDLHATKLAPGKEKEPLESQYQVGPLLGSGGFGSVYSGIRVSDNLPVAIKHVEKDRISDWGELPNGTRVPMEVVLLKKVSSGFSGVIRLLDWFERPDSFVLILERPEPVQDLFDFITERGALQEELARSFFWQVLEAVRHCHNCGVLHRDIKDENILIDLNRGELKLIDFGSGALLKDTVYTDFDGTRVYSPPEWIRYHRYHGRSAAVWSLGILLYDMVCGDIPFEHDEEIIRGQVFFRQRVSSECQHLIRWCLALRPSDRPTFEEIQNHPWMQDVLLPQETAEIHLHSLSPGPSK
Chain of Fibroblast growth factor receptor 3 (Homo sapiens), P22607 [K650E] (P22607 whole entry K650E, the tested form may be a part): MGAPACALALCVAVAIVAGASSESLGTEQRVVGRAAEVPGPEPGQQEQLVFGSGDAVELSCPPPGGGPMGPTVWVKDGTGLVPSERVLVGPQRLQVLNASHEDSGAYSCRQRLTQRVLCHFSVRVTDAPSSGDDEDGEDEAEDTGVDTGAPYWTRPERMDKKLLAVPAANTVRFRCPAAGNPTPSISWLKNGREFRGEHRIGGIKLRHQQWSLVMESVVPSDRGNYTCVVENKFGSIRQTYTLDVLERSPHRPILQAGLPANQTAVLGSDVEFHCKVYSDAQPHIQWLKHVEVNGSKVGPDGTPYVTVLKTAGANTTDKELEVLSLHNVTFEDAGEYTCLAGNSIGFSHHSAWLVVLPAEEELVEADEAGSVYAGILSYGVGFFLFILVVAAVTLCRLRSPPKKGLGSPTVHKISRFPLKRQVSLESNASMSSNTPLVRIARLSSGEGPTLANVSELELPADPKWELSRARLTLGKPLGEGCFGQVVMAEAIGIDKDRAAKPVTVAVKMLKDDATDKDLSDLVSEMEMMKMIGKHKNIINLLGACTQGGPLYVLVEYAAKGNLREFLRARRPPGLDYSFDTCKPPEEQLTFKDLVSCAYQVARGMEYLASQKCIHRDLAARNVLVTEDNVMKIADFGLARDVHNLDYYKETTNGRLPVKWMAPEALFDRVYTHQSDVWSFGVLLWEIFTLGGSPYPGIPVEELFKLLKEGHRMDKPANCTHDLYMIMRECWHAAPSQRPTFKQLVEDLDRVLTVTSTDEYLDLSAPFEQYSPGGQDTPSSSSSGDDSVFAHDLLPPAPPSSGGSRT
Chain of Tyrosine-protein kinase ITK/TSK (Homo sapiens) (Q08881 whole entry): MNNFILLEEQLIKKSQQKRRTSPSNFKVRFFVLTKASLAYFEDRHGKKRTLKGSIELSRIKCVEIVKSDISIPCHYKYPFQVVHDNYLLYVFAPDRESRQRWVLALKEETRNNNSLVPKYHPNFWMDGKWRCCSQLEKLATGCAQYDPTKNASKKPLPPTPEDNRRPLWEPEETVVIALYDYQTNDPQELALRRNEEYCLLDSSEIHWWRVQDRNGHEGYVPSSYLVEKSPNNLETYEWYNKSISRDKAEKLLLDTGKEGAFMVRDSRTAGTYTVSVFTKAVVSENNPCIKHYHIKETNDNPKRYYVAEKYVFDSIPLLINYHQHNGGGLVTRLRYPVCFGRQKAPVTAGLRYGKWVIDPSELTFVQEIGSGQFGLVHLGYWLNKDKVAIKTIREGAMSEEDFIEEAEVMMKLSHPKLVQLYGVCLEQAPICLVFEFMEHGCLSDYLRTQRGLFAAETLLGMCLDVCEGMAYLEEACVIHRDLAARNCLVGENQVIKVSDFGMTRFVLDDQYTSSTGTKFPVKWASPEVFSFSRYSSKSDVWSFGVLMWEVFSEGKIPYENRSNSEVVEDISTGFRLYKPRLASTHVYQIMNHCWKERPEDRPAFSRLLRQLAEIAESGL
Chain of Tyrosine-protein kinase JAK2 (Homo sapiens), O60674 [V617F] (O60674 whole entry V617F, the tested form may be a part): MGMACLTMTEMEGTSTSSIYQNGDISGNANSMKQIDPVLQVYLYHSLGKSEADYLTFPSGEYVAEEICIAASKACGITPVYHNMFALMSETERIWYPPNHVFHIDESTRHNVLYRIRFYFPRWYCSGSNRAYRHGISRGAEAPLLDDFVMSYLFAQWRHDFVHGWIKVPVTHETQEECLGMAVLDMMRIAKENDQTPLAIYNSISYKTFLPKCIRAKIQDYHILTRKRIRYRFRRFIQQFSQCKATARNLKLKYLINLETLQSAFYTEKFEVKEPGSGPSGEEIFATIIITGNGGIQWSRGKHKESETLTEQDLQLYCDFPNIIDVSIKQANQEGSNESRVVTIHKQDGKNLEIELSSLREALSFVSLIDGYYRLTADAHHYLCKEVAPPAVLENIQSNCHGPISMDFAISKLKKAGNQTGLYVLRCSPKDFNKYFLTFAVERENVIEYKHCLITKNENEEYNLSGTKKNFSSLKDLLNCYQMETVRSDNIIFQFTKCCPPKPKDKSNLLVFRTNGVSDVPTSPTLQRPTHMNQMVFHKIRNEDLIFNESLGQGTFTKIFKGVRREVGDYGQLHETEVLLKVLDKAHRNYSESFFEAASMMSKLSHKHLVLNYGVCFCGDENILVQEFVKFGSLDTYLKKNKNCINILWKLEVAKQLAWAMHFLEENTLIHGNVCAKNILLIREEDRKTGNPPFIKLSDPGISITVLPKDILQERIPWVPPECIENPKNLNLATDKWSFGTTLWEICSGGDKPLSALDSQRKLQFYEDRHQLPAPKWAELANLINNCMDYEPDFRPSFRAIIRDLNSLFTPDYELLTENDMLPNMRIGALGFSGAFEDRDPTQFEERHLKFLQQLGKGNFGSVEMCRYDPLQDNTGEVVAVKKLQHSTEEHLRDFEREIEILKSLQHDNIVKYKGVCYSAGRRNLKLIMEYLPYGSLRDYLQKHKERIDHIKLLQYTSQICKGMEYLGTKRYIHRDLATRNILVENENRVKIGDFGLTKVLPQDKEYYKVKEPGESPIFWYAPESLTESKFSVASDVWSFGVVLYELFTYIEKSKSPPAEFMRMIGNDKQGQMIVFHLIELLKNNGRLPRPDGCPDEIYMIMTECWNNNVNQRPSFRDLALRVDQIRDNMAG
Chain of Serine/threonine-protein kinase Nek7 (Homo sapiens) (Q8TDX7 whole entry, looked up, the tested form may be a part): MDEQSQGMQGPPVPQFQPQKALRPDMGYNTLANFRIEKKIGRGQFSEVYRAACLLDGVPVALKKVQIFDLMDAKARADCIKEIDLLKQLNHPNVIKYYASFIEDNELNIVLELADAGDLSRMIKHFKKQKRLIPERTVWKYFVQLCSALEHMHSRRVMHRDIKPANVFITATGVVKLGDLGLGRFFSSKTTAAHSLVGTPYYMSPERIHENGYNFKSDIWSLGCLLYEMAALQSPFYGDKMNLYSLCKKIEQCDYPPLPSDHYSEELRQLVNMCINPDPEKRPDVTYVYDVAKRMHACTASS
Chain of Testis-specific serine/threonine-protein kinase 1 (Homo sapiens) (Q9BXA7 whole entry): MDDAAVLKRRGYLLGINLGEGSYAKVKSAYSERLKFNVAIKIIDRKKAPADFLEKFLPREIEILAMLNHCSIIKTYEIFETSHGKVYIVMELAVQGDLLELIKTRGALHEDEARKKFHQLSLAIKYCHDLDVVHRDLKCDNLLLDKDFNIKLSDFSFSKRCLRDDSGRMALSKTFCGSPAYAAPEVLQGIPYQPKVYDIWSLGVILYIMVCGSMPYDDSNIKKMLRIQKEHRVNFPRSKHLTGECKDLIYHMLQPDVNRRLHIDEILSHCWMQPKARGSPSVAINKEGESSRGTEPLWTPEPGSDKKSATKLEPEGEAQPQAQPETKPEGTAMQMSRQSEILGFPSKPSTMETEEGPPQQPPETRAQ
Chain of MAP kinase-activated protein kinase 3 (Homo sapiens) (Q16644 whole entry, looked up): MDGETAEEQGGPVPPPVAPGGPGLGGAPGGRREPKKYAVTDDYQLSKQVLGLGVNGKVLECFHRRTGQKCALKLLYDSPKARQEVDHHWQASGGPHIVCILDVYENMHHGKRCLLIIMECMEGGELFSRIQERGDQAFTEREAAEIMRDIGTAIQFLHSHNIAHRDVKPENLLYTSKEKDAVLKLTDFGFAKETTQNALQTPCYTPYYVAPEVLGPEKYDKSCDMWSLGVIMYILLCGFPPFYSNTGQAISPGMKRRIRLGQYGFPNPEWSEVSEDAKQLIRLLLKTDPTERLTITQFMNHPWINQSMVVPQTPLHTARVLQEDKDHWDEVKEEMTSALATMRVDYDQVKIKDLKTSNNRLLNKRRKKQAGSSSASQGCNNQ

## CNC(=O)Nc1ccc(-c2nc(N3CC4CCC(C3)O4)c3cnn(C4CCC5(CC4)OCCO5)c3n2)cc1
[1]
  Activity: Active
[2]
  inhibition: 6%
[3]
  Activity: Active
[4]
  inhibition: -3%
[5]
  inhibition: 0%
[6]
  Activity: Active
[7]
  inhibition: 1%
[8]
  Activity: Active
[9]
  inhibition: 1%
[10]
  inhibition: 0%
[11]
  inhibition: 3%
[12]
  inhibition: Active
[13]
  inhibition: 1%
[14]
  Activity: Active
[15]
  inhibition: 8%
[16]
  IC50: 0.055 µM
[17]
  Activity: 13%
[18]
  inhibition: 2%
[19]
  inhibition: 7%
[20]
  Activity: Active
[21]
  inhibition: 3%
[22]
  IC50: 20 µM
[23]
  inhibition: 3%
[24]
  Activity: 100%
[25]
  inhibition: 4%
[26]
  inhibition: 2%
